Assay results as given in US8552007B2, “Mesoionic pesticides” (E.I. du Pont de Nemours and Company, priority 2008, dated 2013).
Counter-ions that a name gives are not always drawn. Like-named read-outs stand apart in the source and are kept apart here.

How the values were obtained:
[1] = test system: cat flea (Ctenocephalides felis); experiment: whole plant or invertebrate; type: in vivo; conditions: 20 μL of 500 ppm solution on filter paper, adult fleas, 48 hours
Description: For evaluating control of the cat flea (Ctenocephalides felis), a test compound was solubilized in acetone:water (75:25) to a final test rate of 500 ppm. Then 20 μL of the 500 ppm solution was applied to filter paper in the bottom of a tube. The tube was allowed to dry for 3 hours. Then approximately 10 adult fleas were added to the tube and the tube was capped. The fleas were evaluated for mortality 48 hours later.

[2] = test system: corn planthopper (Peregrinus maidis); experiment: whole plant or invertebrate; type: in vivo; conditions: 144 h
Description: For evaluating control of corn planthopper (Peregrinus maidis) through contact and/or systemic means, the test unit consisted of a small open container with a 3-4-day-old maize plant (spike) inside. White sand was added to the top of the soil prior to application. Test compounds were formulated and sprayed at 250 and 50 ppm and replicated three times as described for Test A. After spraying, the test units were allowed to dry for 1 h before they were post-infested with ˜15-20 nymphs (18 to 21 day old) by sprinkling them onto the sand with a salt shaker. A black, screened cap was placed on the top of the cylinder. The test units were held for 6 days in a growth chamber at 22-24° C. and 50-70% relative humidity. Each test unit was then visually assessed for insect mortality.

[3] = test system: cat flea (Ctenocephalides felis); experiment: whole plant or invertebrate; type: in vivo; conditions: 30 ppm in bovine blood, adult fleas, 72 h
Description: For evaluating control of the cat flea (Ctenocephalides felis), a test compound was solubilized in propylene glycol/glycerol formal (60:40) and then diluted in bovine blood to a final test rate of 30 ppm. The treated blood was placed in a tube with the bottom of the tube covered with a membrane. Approximately 10 adult cat fleas were allowed to feed through the membrane on the treated blood. The adult fleas were evaluated for mortality 72 h later.

[4] = test system: potato leafhopper (Empoasca fabae); experiment: whole plant or invertebrate; type: in vivo; conditions: 144 h, Soleil bean plant, 6 days; for mortality at 250 ppm: sprayed at 250 ppm; for mortality at 50 ppm: sprayed at 50 ppm
Description: For evaluating control of potato leafhopper (Empoasca fabae) through contact and/or systemic means, the test unit consisted of a small open container with a 5-6-day-old Soleil bean plant (primary leaves emerged) inside. White sand was added to the top of the soil and one of the primary leaves was excised prior to application.
Test compounds were formulated and sprayed at 250 and 50 ppm, and the tests were replicated three times as described for Test A. After spraying, the test units were allowed to dry for 1 h before they were post-infested with 5 potato leafhoppers (18-21-day-old adults). A black, screened cap was placed on the top of the cylinder. The test units were held for 6 days in a growth chamber at 24° C. and 70% relative humidity. Each test unit was then visually assessed for insect mortality.

[5] = test system: green peach aphid (Myzus persicae); experiment: whole plant or invertebrate; type: in vivo; conditions: 144 h, sprayed at 250 ppm, radish plant, 6 days
From the text: For evaluating control of green peach aphid (Myzus persicae) through contact and/or systemic means, the test unit consisted of a small open container with a 12-15-day-old radish plant inside. This was pre-infested by placing on a leaf of the test plant 30-40 aphids on a piece of leaf excised from a culture plant (cut-leaf method). The aphids moved onto the test plant as the leaf piece desiccated. After pre-infestation, the soil of the test unit was covered with a layer of sand.
Test compounds were formulated and sprayed at 250 ppm as described for Test A. The applications were replicated three times. After spraying of the formulated test compound, each test unit was allowed to dry for 1 h and then a black, screened cap was placed on top. The test units were held for 6 days in a growth chamber at 19-21° C. and 50-70% relative humidity. Each test unit was then visually assessed for insect mortality.

[6] = sprayed at 50 ppm, maize plant, 6 days, read-out: mortality
[7] = sprayed at 250 ppm, maize plant, 6 days, read-out: mortality

Row | Compound | mortality at 500 ppm [1] | mortality at 50 ppm [2, 6] | mortality at 250 ppm [2, 7] | mortality at 250 ppm [4] | other results
1 | COc1cccc(-c2ccc(C[n+]3c([O-])c(-c4ccccc4)c(=O)n4ccccc43)cn2)c1 [Compound 599] | ≥ 50% | ≥ 80% | – | – | mortality at 30 ppm [3]: ≥ 50%
2 | O=c1cc([O-])[n+](CC(F)(F)F)c2ccccn12 (as salt: salt) [Compound 610, 2-hydroxy-4-oxo-1-(2,2,2-trifluoroethyl)-4H-pyrido[1,2-a]-pyrimidinium inner salt] | – | – | – | – | melting point: 214 to 215 °C
3 | O=c1c(C2CCc3ccccc32)c([O-])[n+](Cc2ccc(Cl)nc2)c2ccccn12 (stereo not drawn) [Compound 757] | – | – | – | – | mortality at 50 ppm [2]: ≥ 80%; mortality at 250 ppm [2]: ≥ 80%
4 | O=c1c(-c2ccc(F)nc2)c([O-])[n+](CC(F)(F)F)c2ccccn12 [Compound 571] | – | ≥ 80% | ≥ 80% | ≥ 80% | –
5 | COc1cccc(-c2ncc(C[n+]3c([O-])c(-c4ccccc4)c(=O)n4ccccc43)s2)c1 [Compound 520] | ≥ 50% | – | – | – | –
6 | CC(C)c1c([O-])[n+](CC(F)(F)F)c2ccccn2c1=O [Compound 115] | ≥ 50% | – | ≥ 80% | – | –
7 | COc1cccc(-c2ncc(C[n+]3c([O-])c(I)c(=O)n4ccccc43)s2)c1 [Compound 613, 2-hydroxy-3-iodo-1-[[2-(3-methoxyphenyl)-5-thiazolyl]methyl]-4-oxo-4H-pyrido[1,2-a]-pyrimidinium inner salt] | – | ≥ 80% | ≥ 80% | ≥ 80% | –
8 | O=C(c1c([O-])[n+](CC(F)(F)F)c2ccccn2c1=O)C(F)(F)F [Compound 711, 2-hydroxy-4-oxo-3-(2,2,2-trifluoroacetyl)-1-(2,2,2-trifluoroethyl)-4H-pyrido[1,2-a]-pyrimidinium inner salt] | – | – | – | – | mortality at 50 ppm [4]: ≥ 80%
9 | O=c1c(-c2ccc(Cl)nc2)c([O-])[n+](CC(F)(F)F)c2ccccn12 [Compound 570] | – | ≥ 80% | ≥ 80% | ≥ 80% | mortality at 50 ppm [4]: ≥ 80%
10 | O=c1c(I)c([O-])[n+](CC(F)(F)F)c2ccccn12 [Compound 111] | – | ≥ 80% | ≥ 80% | ≥ 80% | mortality at 50 ppm [4]: ≥ 80%; mortality at 250 ppm [5]: ≥ 80%
11 | O=c1c(-c2ccncc2Cl)c([O-])[n+](CC(F)(F)F)c2ccccn12 [Compound 121] | ≥ 50% | ≥ 80% | ≥ 80% | – | mortality at 30 ppm [3]: ≥ 50%
12 | O=c1c(-c2ccccc2)c([O-])[n+](C2CCOCC2)c2ccccn12 [Compound 583] | – | – | ≥ 80% | – | –
